Literature values in PubChem BioAssay AID1259409 (Chemical Carcinogenesis Research Information System (CCRIS), 2018).

Tested on: rodent chemically induced tumor inhibition, incidence and multiplicity
Test: CCRIS tumor inhibitor studies
Details: Carcinogen: DIETHYLNITROSAMINE, 55-18-5, N-METHYLNITROSOUREA, 684-93-5, 1,2-DIMETHYLHYDRAZINE, 540-73-8, N-BUTYL-N-(4-HYDROXYB, Carcinogen: DIETHYLNITROSAMINE, 55-18-5, N-METHYLNITROSOUREA, 684-93-5, 1,2-DIMETHYLHYDRAZINE, 540-73-8, N-BUTYL-N-(4-HYDROXYB, Dose [Inhibitor]: 0, Route [Inhibitor]: ORAL, Species: RAT, Strain/Sex: F344/MALE, Dose [Carcinogen]: 100 MG/KG DEN ONCE, 20 MG/KG MNU 4 TIMES, 40 MG/KG DMH 4 TIMES, 0.05% BBN IN DRINKING WATER FOR 2 WK, 0.1% DHPN IN D, Dose [Carcinogen]: 100 MG/KG DEN ONCE, 20 MG/KG MNU 4 TIMES, 40 MG/KG DMH 4 TIMES, 0.05% BBN IN DRINKING WATER FOR 2 WK, 0.1% DHPN IN D, Promoter: NONE USED

Compound: O=c1c(O)c(-c2ccc(O)c(O)c2)oc2cc(O)cc(O)c12
- tumour outcome (control, treated, inhibition, significance) (1% IN DIET FOR 4 WK BEGINNING 1 DAY PRIOR TO CARCINOGEN TREATMENT (STUDY DURATION: 36 WK), Target Tissue: Type of Lesion: LUNG: ADENOMA): 6/14 (43%), 2/13 (15%), 65%, not significant
- tumour outcome (control, treated, inhibition, significance) (1% IN DIET FOR 4 WK BEGINNING 1 DAY PRIOR TO CARCINOGEN TREATMENT (STUDY DURATION: 36 WK), Target Tissue: Type of Lesion: SMALL INTESTINE: ADENOMA): 6/14 (43%), 1/13 (8%), 81%, p<0.05
- tumour outcome (control, treated, inhibition, significance) (1% IN DIET FOR 4 WK BEGINNING 1 DAY PRIOR TO CARCINOGEN TREATMENT (STUDY DURATION: 36 WK), Target Tissue: Type of Lesion: SMALL INTESTINE: CARCINOMA): 5/14 (36%), 2/13 (15%), 58%, not significant
- tumour outcome (control, treated, inhibition, significance) (1% IN DIET FOR 32 WK BEGINNING POST CARCINOGEN TREATMENT (STUDY DURATION: 36 WK), Target Tissue: Type of Lesion: KIDNEY: ADENOMA): 4/14 (29%), 3/12 (25%), 14%, not significant
- tumour outcome (control, treated, inhibition, significance) (1% IN DIET FOR 32 WK BEGINNING POST CARCINOGEN TREATMENT (STUDY DURATION: 36 WK), Target Tissue: Type of Lesion: KIDNEY: NEPHROBLASTOMA): 7/14 (50%), 4/12 (33%), 34%, not significant
- tumour outcome (control, treated, inhibition, significance) (1% IN DIET FOR 32 WK BEGINNING POST CARCINOGEN TREATMENT (STUDY DURATION: 36 WK), Target Tissue: Type of Lesion: LARGE INTESTINE: CARCINOMA): 3/14 (21%), 4/12 (33%), -57%, not significant
